According to patent publication US8575153B2 (Kowa Company, Ltd., priority 2008, dated 2013):

Experiments:
[1] = molecular target: Recombinant human JAK3 enzyme (JAK3 kinase region; Ala795-Ser1124) (Homo sapiens, UniProt P52333); experiment: JAK3 Kinase Assay (Kinase-Glo luminescent, ATP consumption); conditions: read-out: Inhibition rate (%) of JAK3 kinase activity
Sequence of Recombinant human JAK3 enzyme (JAK3 kinase region; Ala795-Ser1124) (P52333 795-1124): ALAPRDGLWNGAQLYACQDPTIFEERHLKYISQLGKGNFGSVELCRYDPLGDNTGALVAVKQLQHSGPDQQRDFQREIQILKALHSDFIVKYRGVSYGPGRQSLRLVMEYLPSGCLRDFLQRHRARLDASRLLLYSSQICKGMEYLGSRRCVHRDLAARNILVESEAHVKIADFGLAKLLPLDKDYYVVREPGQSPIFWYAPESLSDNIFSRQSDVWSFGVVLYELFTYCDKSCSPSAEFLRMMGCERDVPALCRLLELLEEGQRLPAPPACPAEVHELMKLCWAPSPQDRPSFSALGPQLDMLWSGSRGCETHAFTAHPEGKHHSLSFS
Description: Recombinant human JAK3 enzyme (JAK3 kinase region; Ala795-Ser1124) was purchased from Carna Biosciences, Inc.
The reaction was conducted in a kinase buffer (reaction volume: a total of 50 μl) containing 8 mM MOPS (pH 7.0), 0.2 mM EDTA, a test compound solution prepared to each concentration and 0.5 μg/ml JAK3 enzyme using a 96-well polystyrene plate (clear-bottom white-wall). […] After incubating them at room temperature for 2 hours, 50 μl of Kinase-Glo Luminescent Kinase Assay reagent (Promega) was added to each well, and further incubated at room temperature for 10 minutes. Using a chemiluminescence microplate reader MicroLumat LB96P (Berthold), chemiluminescence intensity was measured to quantitate the amount of ATP remaining after reaction. From the amount of ATP consumed in the phosphorylation reaction, the inhibition rate (%) of JAK3 kinase activity was determined.

Compound	inhibition at 0.1 µM [1] [%]	melting point	inhibition at 1 µM [1] [%]
Cc1c(F)cccc1CNc1cc(Nc2ccc(N3CCOCC3)cc2)ncc1C(N)=O [Example 100, 4-[(3-fluoro-2-methylbenzyl)amino]-6-[(4-morpholinophenyl)amino]pyridine-3-carboxyamide]	69	229 to 230 °C	–
Cc1cc(Nc2cc(NCc3cc(F)cc(F)c3)c(C(N)=O)cn2)ccc1N1CCOCC1 [Example 126, 4-[(3,5-difluorobenzyl)amino]-6-[(3-methyl-4-morpholinophenyl)amino]-pyridine-3-carboxyamide]	60	223 to 224 °C (dec.)	–
NC(=O)c1cnc(Nc2ccc(N3CCOCC3)c(Cl)c2)cc1NCc1cc(F)cc(F)c1 [Example 127, 6-[(3-chloro-4-morpholinophenyl)amino]-4-[(3,5-difluorobenzyl)amino]pyridine-3-carboxyamide]	81	222 to 223 °C (dec.)	–
COc1cc(Nc2cc(NCc3cc(F)cc(F)c3)c(C(N)=O)cn2)ccc1N1CCOCC1 [Example 128, 4-[(3,5-difluorobenzyl)amino]-6-[(3-methoxy-4-morpholinophenyl)amino]pyridine-3-carboxyamide]	92	229.6 to 230 °C (dec.)	–
NC(=O)c1cnc(Nc2cccc(N3CCOCC3)c2)cc1NCc1cc(F)cc(F)c1 [Example 131, 4-[(3,5-difluorobenzyl)amino]-6-[(3-morpholinophenyl)amino]pyridine-3-carboxyamide]	91	197 to 198 °C (dec.)	–
NCCN1CCN(c2ccc(Nc3cc(NCc4cc(F)cc(F)c4)c(CC(N)=O)cn3)cc2)CC1 [Example 248, 6-({4-{4-(2-aminoethyl)piperazin-1-yl]phenyl}amino]-4-[(3,5-difluorobenzyl)amino]pyridine-3-carboxyamide]	–	190 to 194 °C (dec.)	–
CC(C)S(=O)(=O)N1CCC(c2ccc(Nc3cc(NCc4cc(F)cc(F)c4)c(C(N)=O)cn3)cc2)CC1 [Example 296, 4-[(3,5-difluorobenzyl)amino]-6-({4-[1-(propan-2-ylsulfonyl)piperidin-4-yl]phenyl}amino) pyridine-3-carboxyamide]	–	142 to 144 °C (dec.)	–
NC(=O)c1cnc(Nc2ccc(N3CCNCC3)cc2)cc1NCc1cccnc1 [Example 355, 6-{(4-(piperazin-1-yl)phenyl]amino}-4-[(pyridin-3-ylmethyl)amino}pyridine-3-carboxyamide]	–	–	92
CN1CCCC1CNc1cc(Nc2ccc(N3CCOCC3)cc2)ncc1C(N)=O (stereo not drawn) [Example 359, 4-{[(1-methylpyrrolidin-2-yl)methyl]amino}-6-[(4-morpholinophenyl)amino]pyridine-3-carboxyamide]	–	–	61
CC(=O)N1CCCC1CNc1cc(Nc2ccc(N3CCOCC3)cc2)ncc1C(N)=O (stereo not drawn) [Example 360, 4-{[(1-acetylpyrrolidin-2-yl)methyl]amino}-6-[(4-morpholinophenyl)amino]pyridine-3-carboxyamide]	–	–	57
NC(=O)c1cnc(Nc2ccc(N3CCOCC3)cc2)cc1NCC1CCCCC1 [Example 361, 4-[(cyclohexylmethyl)amino]-6-[(4-morpholinophenyl)amino]pyridine-3-carboxyamide]	–	–	83
NC(=O)c1cnc(Nc2ccc(N3CCOCC3)cc2)cc1NCC1CC1 [Example 362, 4-[(cyclopropylmethyl)amino]-6-[(4-morpholinophenyl)amino]pyridine-3-carboxyamide]	–	–	40
NC(=O)c1cnc(Nc2ccc(N3CCOCC3)cc2)cc1NCc1ccccn1 [Example 363, 6-[(4-morpholinophenyl)amino]-4-[(pyridin-2-ylmethyl)amino]pyridine-3-carboxyamide]	–	–	67
NC(=O)c1cnc(-n2cnc3ccccc32)cc1NCc1cc(F)cc(F)c1 [Example 365, 6-(1H-benzimidazol-1-yl)-4-[(3,5-difluorobenzyl)amino]pyridine-3-carboxyamide]	–	–	62
N#Cc1ccc2ncn(-c3cc(NCc4cc(F)cc(F)c4)c(C(N)=O)cn3)c2c1 [Example 366, 6-(6-cyano-1H-benzimidazol-1-yl)-4-[(3,5-difluorobenzyl)amino]pyridine-3-carboxyamide]	–	–	9
Cc1ccc(S(=O)(=O)n2cc(-c3cc(NCc4cc(F)cc(F)c4)c(C(N)=O)cn3)c3cccnc32)cc1 [Example 370, 4-[(3,5-difluorobenzyl)amino]-6-{1-[(4-methylphenyl)sulfonyl}-1H-pyrrolo[2,3-b]pyridin-3-yl}pyridine-3-carboxyamide]	–	–	13
NC(=O)c1cnc(-c2c[nH]c3ncccc23)cc1NCc1cc(F)cc(F)c1 [Example 371, 4-[(3,5-difluorobenzyl)amino]-6-(1H-pyrrolo[2,3-b]pyridin-3-yl)pyridine-3-carboxyamide]	–	–	42

More lines, now with the values ahead:

inhibition at 0.1 µM [1] [%]	melting point	inhibition at 1 µM [1] [%]	Compound
61	213.5 to 214.1 °C (dec.)	–	N#Cc1cc(Nc2cc(NCc3cc(F)cc(F)c3)c(C(N)=O)cn2)ccc1N1CCOCC1 [Example 125, 6-[(3-cyano-4-morpholinophenyl)amino]-4-[(3,5-difluorobenzyl)amino]pyridine-3-carboxyamide]
88	218 to 219 °C	–	C[C@@H]1CN(c2ccc(Nc3cc(NCc4c(F)cccc4F)c(C(N)=O)cn3)cc2)C[C@H](C)N1 [Example 143, 4-[(2,6-difluorobenzyl)amino]-6-({4-[(3R,5S)-3,5-dimethylpiperazin-1-yl]phenyl}amino) pyridine-3-carboxyamide]
100	236 to 238 °C (dec.)	–	CS(=O)(=O)Nc1ccc(Nc2cc(NCc3cc(F)cc(F)c3)c(C(N)=O)cn2)cc1 [Example 159, 4-[(3,5-difluorobenzyl)amino]-6-({4-[(methylsulfonyl)amino]phenyl}amino)pyridine-3-carboxyamide]
–	–	45	NC(=O)c1cnc(Nc2ccc(N3CCOCC3)cc2)cc1NC1CCOc2ccccc21 (stereo not drawn) [Example 351, 4-(3,4-dihydro-2H-1-benzopyran-4-ylamino)-6-[(4-morpholinophenyl)amino]pyridine-3-carboxyamide]
–	–	65	NC(=O)c1cnc(Nc2ccc(N3CCOCC3)cc2)cc1NCc1cccnc1 [Example 353, 6-[(4-morpholinophenyl)amino]-4-[(pyridin-3-ylmethyl)amino}pyridine-3-carboxyamide]
–	–	92	CC(C)N1CCN(c2ccc(Nc3cc(NCc4cccnc4)c(C(N)=O)cn3)cc2)CC1 [Example 356, 6-({4-[4-(propan-2-yl)piperazin-1-yl]phenyl}amino)-4-[(pyridin-3-ylmethyl)amino]pyridine-3-carboxyamide]
–	–	31	NC(=O)c1cnc(Nc2ccncc2)cc1NCc1ccccc1 [Example 372, 4-benzylamino-6-(pyridin-4-ylamino) pyridine-3-carboxyamide]
–	–	81	NC(=O)c1cnc(Nc2ccc(N3CCOCC3)nc2)cc1NCc1ccccc1 [Example 373, 4-benzylamino-6-[(6-morpholinopyridin-3-yl)amino]pyridine-3-carboxyamide]
